Measured values taken from PubChem BioAssay (NCI).
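Test compounds were applied to cells in 96-well plates for 48 hours at 5 doses. TGI is the concentration that stops growth completely.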

Assays:
Assay in all cases: DTP human tumour cell line panel, 48 h
DU-145 prostate = system: DU-145 prostate
OVCAR-3 ovarian = system: OVCAR-3 ovarian
NCI-H226 lung = system: NCI-H226 lung
HCT-116 colon = system: HCT-116 colon
UACC-62 melanoma = system: UACC-62 melanoma
HL-60(TB) leukemia = system: HL-60(TB) leukemia
A498 renal = system: A498 renal
A549 NSCLC = system: A549 NSCLC
HT29 colon = system: HT29 colon
UO-31 renal = system: UO-31 renal

| Compound | TGI (DU-145 prostate) | TGI (OVCAR-3 ovarian) | TGI (NCI-H226 lung) | TGI (HCT-116 colon) | TGI (UACC-62 melanoma) | TGI (HL-60(TB) leukemia) | TGI (A498 renal) | TGI (A549 NSCLC) | TGI (HT29 colon) | TGI (UO-31 renal) |
| --- | --- | --- | --- | --- | --- | --- | --- | --- | --- | --- |
| COC[C@@H](C[C@H]1O[C@@](O)([C@H](O)[C@@H]2C[C@H](OC)[C@@H](O)CC/C=C(C)/C=C/[C@@H](O[C@@H]3O[C@@H](C)[C@H](OC)[C@@H](O)[C@@H]3O)[C@H](C)/C=C(C)/C=C(C)/C=C(\C)C(=O)O2)[C@H](C)[C@@H](O)[C@H]1C)O[C@H]1C[C@](C)(O)[C@@H](O[C@H]2C[C@@H](OC)[C@H](O)[C@@H](C)O2)C(C)O1 (some centres not stated) | > 100 µM | > 100 µM | > 100 µM | > 100 µM | > 100 µM | > 100 µM | > 100 µM | > 100 µM | > 100 µM | > 100 µM |
| CCOc1cn(C2CC(O)C(CO)O2)c(=O)[nH]c1=O (configuration not stated) | > 100 µM | > 100 µM | > 100 µM | > 100 µM | > 100 µM | > 100 µM | > 100 µM | > 100 µM | > 100 µM | > 100 µM |
| CCN(CC)C(=O)Cn1c(C)cc2ccccc21 | > 100 µM | > 100 µM | > 100 µM | > 100 µM | > 100 µM | > 100 µM | – | > 100 µM | > 100 µM | > 100 µM |
| CC1(C)NC2C(=O)c3c([nH]c4ccccc34)[C@]3(C)CCC1CC23 (some centres not stated) | > 100 µM | > 100 µM | > 100 µM | > 100 µM | > 100 µM | > 100 µM | > 100 µM | > 100 µM | > 100 µM | > 100 µM |
| C[C@]12CCC(=O)O[C@H]1CCCCO2 | > 100 µM | > 100 µM | > 100 µM | > 100 µM | > 100 µM | > 100 µM | > 100 µM | > 100 µM | > 100 µM | – |
| O=c1[nH]nc(-c2ccccc2)c2[nH]c3c4ccccc4ccc3c12 | – | – | > 100 µM | > 100 µM | > 100 µM | > 100 µM | > 100 µM | > 100 µM | – | – |
| Cc1nc(-c2cc3cc([N+](=O)[O-])ccc3oc2=O)cs1 | > 100 µM | – | > 100 µM | > 100 µM | > 100 µM | > 100 µM | – | > 100 µM | > 100 µM | > 100 µM |
| CC(C)=CCC/C(C)=C/C=C/C(C)=C/C=C/C(C)=C/C=C/C=C(C)/C=C/C=C(C)/C=C/[C@H]1C(C(C)(C)O)CC[C@]1(C)O (some centres not stated) | 49.9 µM | 37.8 µM | > 100 µM | 31.2 µM | – | 48.9 µM | 84.8 µM | – | 86.2 µM | 47 µM |
| C=CCCN1CCc2c([nH]c3ccccc23)C1C(=O)O (configuration not stated) | – | > 100 µM | > 100 µM | > 100 µM | > 100 µM | > 100 µM | > 100 µM | > 100 µM | > 100 µM | > 100 µM |
| O=C1C(CN2CCCCC2)CCC1CN1CCCCC1 (configuration not stated) | > 100 µM | 26.5 µM | > 100 µM | 49.5 µM | 32.3 µM | – | 29.2 µM | > 100 µM | 40.4 µM | 22.1 µM |
| CC1=NNC(N)=N/C1=C\C(Sc1ccc(Cl)cc1)c1ccc([N+](=O)[O-])cc1 (configuration not stated) | > 100 µM | – | 68.1 µM | > 100 µM | > 100 µM | 76.4 µM | > 100 µM | > 100 µM | > 100 µM | > 100 µM |
